Assay results taken from publication PMC4138103 (PLoS ONE, 2014).
Read-outs that look alike come from different tables or passages of the source.

Key:
human TTR [1] = target: T1, human TTR (Homo sapiens, UniProt P02766); experiment: Competition with [125I]-T4 for binding to transthyretin; settings: for Relative potency (REP), Exp 1 / Relative potency (REP), Exp 2 / Relative potency (REP), Mean: TTR binding relative to T4; for IC50: TTR binding, [125I]-T4 competition
T1 construct: purchased Sigma Aldrich
Procedure: Full dose-response curves within the range of 1–100 nM were determined for each OH-PCB metabolite.

human TTR [2] = target: T1, human TTR; experiment: as above; settings: @100 nM
HepG2 cells = system: HepG2 cells; design: method as in Al-Anati et al., in preparation; settings: ref Al-Anati et al., in preparation; cited from earlier work
rats = system: rats; design: method as in PMID 8935785; settings: dietary exposure 90 days; cited from earlier work
[3] = read-out: IC50, Full dose-resonse experiments, Exp 1
[4] = read-out: IC50, Full dose-resonse experiments, Exp 2

Structure (SMILES) | Relative potency (REP), Exp 1 (human TTR [1]) | Relative potency (REP), Exp 2 (human TTR [1]) | Relative potency (REP), Mean (human TTR [1]) | IC50 (human TTR [1]; n = 2, read-out: IC50, Mean) [nM] | IC50 (human TTR [1]; [3]) [nM] | IC50 (human TTR [1]; [4]) [nM] | T4 displacement, Pilot experiment (human TTR [2]) [% T4 displacement @100 nM] | Expression of DNA damage markers pChk1Ser317 and γH2AXSer319 (HepG2 cells) | NOAEL (rats) [mg/kg diet] | NOAEL, equivalent daily dose (rats) [µg/kg bw/day] | NOAEL, equivalent total dose (rats) [mg/kg bw]
Oc1c(Cl)cc(Cl)c(-c2cc(Cl)c(Cl)c(Cl)c2Cl)c1Cl [3' OH-PCB 182] | 3.68 | 2.68 | 3.18 | 19 | 17.4 | 20.5 | 93 |  |  |  | 
Oc1c(Cl)c(Cl)cc(-c2cc(Cl)c(Cl)c(Cl)c2Cl)c1Cl [3'-OH-PCB 180] | 3.96 | 2.84 | 3.40 | 17.8 | 16.2 | 19.4 | 95 | induced |  |  | 
Oc1c(Cl)cc(-c2cc(Cl)c(Cl)c(Cl)c2Cl)c(Cl)c1Cl [4'-OH-PCB 172] | 5.37 | 3.90 | 4.64 | 13 | 11.9 | 14.1 | 95 |  |  |  | 
Oc1c(Cl)c(Cl)c(Cl)c(-c2cc(Cl)c(Cl)cc2Cl)c1Cl [5-OH-PCB 183] | 3.54 | 2.61 | 3.08 | 19.6 | 18.1 | 21.1 | 92 |  |  |  | 
Clc1cc(Cl)c(-c2cc(Cl)c(Cl)cc2Cl)cc1Cl [PCB 153, 2,2′,4,4′,5,5′-hexachlorobiphenyl] |  |  |  |  |  |  |  |  | 0.5 | 34 | 3.1
